# Values quoted from earlier work, collected in patent US20140271893A1 (McNeil-PPC, Inc., priority 2013, published 2014).
# Key:
# [1] = 30 mg dose administered orally over eight hours
# [2] = therapeutic dose
"metabolized to m-hydroxy-phenylglycol-sulfate, % of the dose [1]","metabolized to m-hydroxymandelic acid, % of the dose [1]","metabolized to phenylephrine-glucuronide, % of the dose [1]","metabolized to phenylephrine-sulfate, % of the dose [1]",fraction of dose excreted unchanged in the urine [2],SMILES
6%,30%,12%,47%,,"CNC[C@H](O)c1cccc(O)c1 [phenylephrine, (R)-1-(3-hydroxyphenyl)-2-methylaminoethanol]"
,,,,Less than 9%,CC(=O)Nc1ccc(O)cc1 [acetaminophen]
